Assay results as given in the NIST ThermoML archive (doi:10.1016/j.jct.2018.08.034).
“And” between values parts separate entries of the source, which are not always exact repeats. Equal entries are not always repeated. Numbers after ± are expanded uncertainties.

Columns and labels:
[1] = Crystal
[2] = Molar enthalpy of transition or fusion; details: Crystal; DSC

c1ccc2cc3ccccc3cc2c1 [anthracene]
[1]
Details	vapor or sublimation pressure
343.29 K	0.000192 ± 5.2e-05 kPa
343.3 K	0.000182 ± 5.2e-05 kPa
343.31 K	0.000197 ± 5.2e-05 kPa
345.76 K	0.000235 ± 5.3e-05 kPa and 0.00024 ± 5.2e-05 kPa
345.79 K	0.000247 ± 5.3e-05 kPa
348.21 K	0.000317 ± 5.3e-05 kPa and 0.000305 ± 5.3e-05 kPa
348.27 K	0.000297 ± 5.3e-05 kPa
350.75 K	0.000392 ± 5.4e-05 kPa
350.76 K	0.000401 ± 5.5e-05 kPa
350.79 K	0.000384 ± 5.4e-05 kPa
353.04 K	0.000479 ± 5.5e-05 kPa and 0.000485 ± 5.5e-05 kPa
353.19 K	0.000498 ± 5.5e-05 kPa
355.68 K	0.00063 ± 5.6e-05 kPa
355.73 K	0.000626 ± 5.6e-05 kPa
355.74 K	0.000623 ± 5.6e-05 kPa
358.14 K	0.000799 ± 5.8e-05 kPa
358.15 K	0.000784 ± 5.9e-05 kPa
358.18 K	0.000798 ± 5.8e-05 kPa
360.63 K	0.001 ± 6e-05 kPa
360.66 K	0.000992 ± 6.1e-05 kPa
360.68 K	0.000998 ± 6e-05 kPa
362.95 K	0.00123 ± 6.3e-05 kPa and 0.001232 ± 6.3e-05 kPa
363.13 K	0.001244 ± 6.3e-05 kPa
365.54 K	0.00155 ± 6.7e-05 kPa
365.55 K	0.001551 ± 6.7e-05 kPa
365.56 K	0.001562 ± 6.7e-05 kPa
367.97 K	0.001927 ± 7e-05 kPa and 0.001947 ± 7.1e-05 kPa
367.98 K	0.001941 ± 7.1e-05 kPa
370.43 K	0.002398 ± 7.6e-05 kPa
370.44 K	0.002418 ± 7.6e-05 kPa and 0.002409 ± 7.6e-05 kPa
372.85 K	0.00298 ± 8.3e-05 kPa
372.89 K	0.002973 ± 8.3e-05 kPa and 0.002978 ± 8.3e-05 kPa

c1ccc2cc3sccc3cc2c1 [naphtho[2,3-b]thiophene]
Details	Normal melting temperature [°C]
[1], DTA	188.6 ± 0.9

Details	Molar enthalpy of transition or fusion [kcal/mol]
[2]	5.09 ± 0.117
